Measurements as given in patent US11591341B2 (ALIGOS THERAPEUTICS, INC., priority 2019, dated 2023).

Test system: HBV
Assay: HBV-DNA Antiviral Assay Using HepG2.117 Cells (intracellular HBV DNA by qPCR)
Type: cell-based, hepatitis B virus (genotype D)
Conditions: Hepatitis B virus, HepG2.117
Procedure, shortened: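 Endpoint: qPCR copy number of intracellular HBV DNA after 3-day compound exposure, with inhibition set relative to the 2% DMSO control. The cells were doxycycline-free HepG2.117 carrying a Tet-off genotype D genome, dosed at nine 4-fold dilutions. A duplicate plate gave ATP-based viability (CC50).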

COc1cc(C#N)ccc1CNC(=O)c1c2n(c(=O)n1-c1ccc(OCC(F)(F)F)cc1)CCN(C(=O)c1ccc(Br)c(Cl)c1)C2 [Example 249, 7-(4-bromo-3-chloro-benzoyl)-N-[(4-cyano-2-methoxy-phenyl)methyl]-3-oxo-2-[4-(2,2,2-trifluoroethoxy)phenyl]-6,8-dihydro-5H-imidazo[1,5-a]pyrazine-1-carboxamide]
EC50: 100 to 500 nM

COCCOc1ccc(-n2c(C(=O)NCc3ccccc3)c3n(c2=O)CCN(C(=O)c2ccc(Br)c(Cl)c2)C3)cc1 [Example 250, N-benzyl-7-(4-bromo-3-chloro-benzoyl)-2-[4-(2-methoxyethoxy)phenyl]-3-oxo-6,8-dihydro-5H-imidazo[1,5-a]pyrazine-1-carboxamide]
EC50: 100 to 500 nM

CCc1cc(OC)ccc1CNC(=O)c1c2n(c(=O)n1-c1ccc(OC)cc1)CCN(C(=O)c1ccc(Br)c(Cl)c1)C2 [Example 251, 7-(4-bromo-3-chloro-benzoyl)-N-[(2-ethyl-4-methoxy-phenyl)methyl]-2-(4-methoxyphenyl)-3-oxo-6,8-dihydro-5H-imidazo[1,5-a]pyrazine-1-carboxamide]
EC50: 100 to 500 nM

COc1cc2occc2cc1CNC(=O)c1c2n(c(=O)n1-c1ccc(OC(C)C)cc1)CCN(C(=O)c1ccc(Br)c(Cl)c1)C2 [Example 255, 7-(4-bromo-3-chloro-benzoyl)-2-(4-isopropoxyphenyl)-N-[(6-methoxybenzofuran-5-yl)methyl]-3-oxo-6,8-dihydro-5H-imidazo[1,5-a]pyrazine-1-carboxamide]
EC50: 100 to 500 nM

Cc1cc(-n2c(C(=O)NCc3ccccc3)c3n(c2=O)CCN(C(=O)c2ccc(Br)c(Cl)c2)C3)ccc1C#N [Example 257, N-benzyl-7-(4-bromo-3-chloro-benzoyl)-2-(4-cyano-3-methyl-phenyl)-3-oxo-6,8-dihydro-5H-imidazo[1,5-a]pyrazine-1-carboxamide]
EC50: 500 to 5000 nM

COc1ccc(CNC(=O)c2c3n(c(=O)n2-c2ccc(OCC(F)(F)F)cc2)CCN(C(=O)c2ccc(Br)c(Cl)c2)C3)c(-n2cccn2)c1 [Example 258, 7-(4-bromo-3-chloro-benzoyl)-N-[(4-methoxy-2-pyrazol-1-yl-phenyl)methyl]-3-oxo-2-[4-(2,2,2-trifluroethoxy)phenyl]-6,8-dihydro-5H-imidazo[1,5-a]pyrazine-1-carboxamide]
EC50: < 100 nM

COc1cccc(C)c1CNC(=O)c1c2n(c(=O)n1-c1ccc(OCC(F)(F)F)cc1)CCN(C(=O)c1ccc(Br)c(Cl)c1)C2 [Example 259, 7-(4-bromo-3-chloro-benzoyl)-N-[(2-methoxy-6-methyl-phenyl)methyl]-3-oxo-2-[4-(2,2,2-trifluoroethoxy)phenyl]-6,8-dihydro-5H-imidazo[1,5-a]pyrazine-1-carboxamide]
EC50: 100 to 500 nM

O=C(NCc1ccccc1)c1c2n(c(=O)n1-c1ccc(OCC(F)F)cc1)CCN(C(=O)c1ccc(Br)c(Cl)c1)C2 [Example 260, N-benzyl-7-(4-bromo-3-chloro-benzoyl)-2-[4-(2,2-difluoroethoxy)phenyl]-3-oxo-6,8-dihydro-5H-imidazo[1,5-a]pyrazine-1-carboxamide]
EC50: 500 to 5000 nM

O=C(NCc1ccccc1-n1ccnc1)c1c2n(c(=O)n1-c1ccc(OCC(F)(F)F)cc1)CCN(C(=O)c1ccc(Br)c(Cl)c1)C2 [Example 263, 7-(4-bromo-3-chloro-benzoyl)-N-[(2-imidazol-1-ylphenyl)methyl]-3-oxo-2-[4-(2,2,2-trifluoroethoxy)phenyl]-6,8-dihydro-5H-imidazo[1,5-a]pyrazine-1-carboxamide]
EC50: 500 to 5000 nM

N#CCOc1ccc(-n2c(C(=O)NCc3ccccc3)c3n(c2=O)CCN(C(=O)c2ccc(Br)c(Cl)c2)C3)cc1 [Example 265, N-benzyl-7-(4-bromo-3-chloro-benozyl)-2-[4-(cyanomethoxy)phenyl]-3-oxo-6,8-dihydro-5H-imidazo[1,5-a]pyrazine-1-carboxamide]
EC50: 500 to 5000 nM

COc1ccc(CNC(=O)c2c3n(c(=O)n2-c2ccc(OCC(F)(F)F)cc2)CCN(C(=O)c2ccc(Br)c(Cl)c2)C3)c(OC(F)F)c1 [Example 266]
EC50: 100 to 500 nM

O=C(NCc1ccccc1)c1c2n(c(=O)n1-c1ccc(-n3cccn3)cc1)CCN(C(=O)c1ccc(Br)c(Cl)c1)C2 [Example 271, N-benzyl-7-(4-bromo-3-chloro-benzoyl)-3-oxo-2-(4-pyrazol-1-ylphenyl)-6,8-dihydro-5H-imidazo[1,5-a]pyrazine-1-carboxamide]
EC50: 100 to 500 nM

CC(C)COc1ccc(-n2c(C(=O)NCc3ccccc3)c3n(c2=O)CCN(C(=O)c2ccc(Br)c(Cl)c2)C3)cc1 [Example 272, N-benzyl-7-(4-bromo-3-chloro-benzoyl)-2-(4-isobutoxyphenyl)-3-oxo-6,8-dihydro-5H-imidazo[1,5-a]pyrazine-1-carboxamide]
EC50: 100 to 500 nM

COc1ccc(-n2c(-c3ccccn3)c3n(c2=O)CCN(C(=O)c2ccc(Br)c(Cl)c2)C3)cc1 [Example 275, 7-(4-bromo-3-chloro-benzoyl)-2-(4-methoxyphenyl)-1-(2-pyridyl)-6,8-dihydro-5H-imidazo[1,5-a]pyrazin-3-one]
EC50: > 5000 nM

Cc1coc2ccc(-n3c(C(=O)NCc4ccccc4)c4n(c3=O)CCN(C(=O)c3ccc(Br)c(Cl)c3)C4)cc12 [Example 276]
EC50: 100 to 500 nM

O=C(NCc1cccc2nccnc12)c1c2n(c(=O)n1-c1ccc(OCC(F)(F)F)cc1)CCN(C(=O)c1ccc(Br)c(Cl)c1)C2 [Example 277, 7-(4-bromo-3-chloro-benzoyl)-3-oxo-N-(quinoxalin-5-ylmethyl)-2-[4-(2,22,- trifluoroethoxy)phenyl]-6,8-dihydro-5H-imidazo[1,5-a]pyrazine-1-carboxamide]
EC50: < 100 nM

O=C(NCc1ccccc1)c1c2n(c(=O)n1-c1ccc(N3CCOCC3)cc1)CCN(C(=O)c1ccc(Br)c(Cl)c1)C2 [Example 278, N-benzyl-7-(4-bromo-3-chloro-benzoyl)-2-(4-morpholinophenyl)-3-oxo-6,8-dihydro-5H-imidazo[1,5-a]pyrazine-1-carboxamide]
EC50: 100 to 500 nM

O=C(NCc1ccc(OC(F)(F)F)cc1F)c1c2n(c(=O)n1-c1ccc(OCC(F)(F)F)cc1)CCN(C(=O)c1ccc(Br)c(Cl)c1)C2 [Example 284, 7-(4-bromo-3-chloro-benzoyl)-N-[[2-fluoro-4-(trifluoromethoxy)phenyl]methyl]-3-oxo-2-[4-(2,2,2-trifluoroethoxy)phenyl]-6,8-dihydro-5H-imidazo[1,5-a]pyrazine-1-carboxamide]
EC50: 500 to 5000 nM

NC(=O)COc1ccc(-n2c(C(=O)NCc3ccccc3)c3n(c2=O)CCN(C(=O)c2ccc(Br)c(Cl)c2)C3)cc1 [Example 285, 2-[4-(2-amino-2-oxo-ethoxy)phenyl]-N-benzyl-7-(4-bromo-3-chloro-benzoyl)-3-oxo-6,8-dihydro-5H-imidazo[1,5-a]pyrazine-1-carboxamide]
EC50: 500 to 5000 nM

O=C(NCc1ccc(OC(F)F)cc1F)c1c2n(c(=O)n1-c1ccc(OCC(F)(F)F)cc1)CCN(C(=O)c1ccc(Br)c(Cl)c1)C2 [Example 286, 7-(4-bromo-3-chloro-benzoyl)-N-[[4-(difluoromethoxy)-2-fluoro-phenyl]methyl]-3-oxo-2-[4-(2,2,2-trifluoroethoxy)phenyl]-6,8-dihydro-5H-imidazo[1,5-a]pyrazine-1-carboxamide]
EC50: 500 to 5000 nM

N#Cc1ccc(CNC(=O)c2c3n(c(=O)n2-c2ccc(OCC(F)(F)F)cc2)CCN(C(=O)c2ccc(Br)c(Cl)c2)C3)c(F)c1 [Example 287, 7-(4-bromo-3-chloro-benzoyl)-N-[(4-cyano-2-fluoro-phenyl)methyl]-3-oxo-2-[4-(2,2,2-trifluoroethoxy)phenyl]-6,8-dihydro-5H-imidazo[1,5-a]pyrazine-1-carboxamide]
EC50: 500 to 5000 nM

CC(C)Oc1ccc(-n2c(C(=O)NCc3ccc(C(=O)O)cc3)c3n(c2=O)CCN(C(=O)c2ccc(Br)c(Cl)c2)C3)cc1 [Example 294, 4-[[[7-(4-bromo-3-chloro-benzoyl)-2-(4-isopropoxyphenyl)-3-oxo-6,8-dihydro-5H-imidazo[1,5-a]pyrazine-1-carbonyl]amino]methyl]benzoic acid]
EC50: > 5000 nM

Cc1cc2occc2cc1CNC(=O)c1c2n(c(=O)n1-c1ccc(OCC(F)(F)F)cc1)CCN(C(=O)c1ccc(Br)c(Cl)c1)C2 [Example 295, 7-(4-bromo-3-chloro-benzoyl)-N-[(6-methylbenzofuran-5-yl)methyl]-3-oxo-2-[4-(2,2,2-trifluoroethoxy)phenyl]-6,8-dihydro-5H-imidazo[1,5-a]pyrazine-1-carboxamide]
EC50: 100 to 500 nM

O=C(NCc1ccc(OC(F)(F)F)cc1F)c1c2n(c(=O)n1-c1ccc(OC3CC3)cc1)CCN(C(=O)c1ccc(Br)c(Cl)c1)C2 [Example 296, 7-(4-bromo-3-chloro-benzoyl)-2-[4-(cyclopropoxy)phenyl]-N-[[2-fluoro-4-(trifluoromethxoy)phenyl]methyl]-3-oxo-6,8-dihydro-5H-imidazo[1,5-a]pyrazine-1-carboxamide]
EC50: 500 to 5000 nM

O=C(NCc1ccc(OC(F)F)cc1F)c1c2n(c(=O)n1-c1ccc(OC3CC3)cc1)CCN(C(=O)c1ccc(Br)c(Cl)c1)C2 [Example 297, 7-(4-bromo-3-chloro-benzoyl)-2-[4-(cyclopropoxy)phenyl]-N-[[4-(difluoromethoxy)-2-fluoro-phenyl]methyl]-3-oxo-6,8-dihydro-5H-imidazo[1,5-a]pyrazine-1-carboxamide]
EC50: 100 to 500 nM

O=C(NCc1ccccc1)c1c2n(c(=O)n1-c1ccc3[nH]ncc3c1)CCN(C(=O)c1ccc(Br)c(Cl)c1)C2 [Example 298, N-benzyl-7-(4-bromo-3-chloro-benzoyl)-2-(1H-indazol-5-yl)-3-oxo-6,8-dihydro-5H-imidazo[1,5-a]pyrazine-1-carboxamide]
EC50: 500 to 5000 nM

NC(=O)COc1ccc(CNC(=O)c2c3n(c(=O)n2-c2ccc(OCC(F)(F)F)cc2)CCN(C(=O)c2ccc(Br)c(Cl)c2)C3)c(F)c1 [Example 303, N-[[4-(2-amino-2-oxo-ethoxy)-2-fluoro-phenyl]methyl]-7-(4-bromo-3-chloro-benzoyl)-3-oxo-2-[4-(2,2,2-trifluoroethoxy)phenyl]-6,8-dihydro-5H-imidazo[1,5-a]pyrazine-1-carboxamide]
EC50: 500 to 5000 nM
